Data as given in publication PMC8479016, “High-throughput screening and evaluation of repurposed drugs targeting the SARS-CoV-2 main protease” (Signal Transduction and Targeted Therapy, 2021).
Several values for one entry are separate records, joined by “and”; a condition that tells them apart may be missing. Equal values may be shown once. Entries after “also recorded” stand apart in the source; their conditions may differ. Read-outs that look alike come from different tables or passages of the source.

Assays:
SARS-CoV-2 M^pro [1] = target: T1, SARS-CoV-2 M^pro (Severe acute respiratory syndrome coronavirus 2, UniProt P0DTD1); test: biochemical; assay type: binding
SARS-CoV-2 M^pro [2] = target: T1, SARS-CoV-2 M^pro; test: biochemical; assay type: biochemical; settings: for inhibitory efficacy on the enzymatic activity of M^pro (inhibition rate): 20 μM drug, 1.5 µM M^pro, 10 μM substrate, 3~6 h
SARS-CoV-2 [3] = test: Antiviral activity assay in infected Vero E6 cells, viral RNA copies by qRT-PCR; assay type: cell-based; settings: Vero E6, MOI 0.01, 48 h after infection
SARS-CoV-2 [4] = tested on: SARS-CoV-2; set-up: method as in earlier work; settings: cellular experiment; cited from earlier work
[5] = SPR, steady-state affinity model, 25℃, read-out: KD (equilibrium dissociation constant)

| SMILES | Kd (SARS-CoV-2 M^pro [1]; [5]) | inhibitory efficacy on the enzymatic activity of M^pro (inhibition rate) (SARS-CoV-2 M^pro [2]) | also measured |
| --- | --- | --- | --- |
| Cc1onc(-c2ccccc2Cl)c1C(=O)N[C@@H]1C(=O)N2[C@@H]1SC(C)(C)[C@@H]2C(=O)O [Cloxacillin] | ≤ 55 µM and 54.6 µM | moderate inhibition | – |
| C[C@@H]1CCO[C@H]2Cn3cc(C(=O)NCc4ccc(F)cc4F)c(=O)c(O)c3C(=O)N12 [Dolutegravir] | ≤ 55 µM and 18.1 µM | moderate inhibition | – |
| CC(C)(O)CNc1nc(Nc2ccnc(C(F)(F)F)c2)nc(-c2cccc(C(F)(F)F)n2)n1 [Enasidenib] | ≤ 55 µM and 9.31 µM | – | – |
| CN1CCN(c2ccc(C(=O)Nc3n[nH]c4ccc(Cc5cc(F)cc(F)c5)cc34)c(NC3CCOCC3)c2)CC1 [Entrectinib] | ≤ 55 µM and 0.68 µM | outstanding inhibitory efficacy | IC50 (SARS-CoV-2 M^pro [2]; 200 nM M^pro, 5-fold gradient 0.032-20 µM, 3 h, read-out: IC50): 10.6 µM; EC50 (SARS-CoV-2 [3]; Severe acute respiratory syndrome coronavirus 2, Vero C1008): 0.198 µM |
| CC(C)C[C@H](NC(=O)OCc1ccccc1)C(=O)N[C@@H](CC1CCNC1=O)C(O)S(=O)(=O)O (stereo partly drawn) [GC376] | – | – | EC50 (SARS-CoV-2 [3]): 0.074 µM |
| CC(C)(C)NC(=O)[C@@H]1C[C@@H]2CCCC[C@@H]2CN1C[C@@H](O)[C@H](Cc1ccccc1)NC(=O)[C@H](CC(N)=O)NC(=O)c1ccc2ccccc2n1 [Saquinavir] | – | – | Kd (SARS-CoV-2 M^pro [1]): 2.96 ± 2 µM; Kd (SARS-CoV-2 M^pro [1]; read-out: KD (equilibrium dissociation constant)): ≤ 55 µM |
| CC(C)CN(C[C@@H](O)[C@H](Cc1ccccc1)NC(=O)O[C@H]1CO[C@H]2OCC[C@H]21)S(=O)(=O)c1ccc(N)cc1 [darunavir] | – | either no or only weak inhibitory effects | – |
| Cc1cccc(C)c1OCC(=O)N[C@@H](Cc1ccccc1)[C@@H](O)C[C@H](Cc1ccccc1)NC(=O)[C@H](C(C)C)N1CCCNC1=O [lopinavir] | – | either no or only weak inhibitory effects | – |
| Cc1c(O)cccc1C(=O)N[C@@H](CSc1ccccc1)[C@H](O)CN1C[C@H]2CCCC[C@H]2C[C@H]1C(=O)NC(C)(C)C [nelfinavir] | – | either no or only weak inhibitory effects; also recorded: failed to block the enzymatic activity | Kd (SARS-CoV-2 M^pro [1]): 2.36 µM; IC50 (SARS-CoV-2 M^pro [2]): 41.5 µM; EC50 (SARS-CoV-2 [4]): 1.13 µM |
